Data reported in patent publication US11891350B2, “Compounds for use in the treatment or prophylaxis of pain, inflammation and/or autoimmunity” (NOVAREMED LTD., priority 2019, dated 2024).
Like-named read-outs stand apart in the source and are kept apart here. Blank lines part the entries; values can stand above or below the compound they belong to.

Key:
LynA tyrosine kinase = LynA tyrosine kinase (Homo sapiens, UniProt P07948); test: Effect on LynA tyrosine kinase activity; type: biochemical
[1] = Bioavailability and pharmacokinetics of polymorphs 1 and 2 after single oral dose, cross-over, in dogs; type: in vivo, male Beagle dog; settings: for LS geometric mean Cmax: corrected to a 60.0-mg dose; for adverse reactions to the oral administration: single oral dose 60 mg/kg
Procedure: This study was designed to obtain blood plasma samples to enable the comparison of the bioavailability and pharmacokinetics of two different polymorphs 1 and 2 following single-dose oral administration to six dogs. A cross-over design was used with three dogs treated according to sequence 1 (polymorph 2 after 1) and three dogs according to sequence 2 (polymorph 1 after 2) with a one-week washout period between treatments.
Each polymorph was prepared as a suspension in a vehicle of 0.5% w/v HPMC K15M/0.5% w/v Tween 80 in sterile water.
Six male Beagle dogs (Tattoo numbers: 4986, 0964, 3611, 2380, 5002 and 1122 on-study animal numbers: 001 M, 002M, 003M, 004M, 005M and 006M, respectively) bodyweight 9.5-11.5 kg, aged 2-7 years at dosing, currently held as part of a colony of animals (Colony number: 190431) were used on this study. Dogs were originally obtained from Marshall Farms USA Inc. (NY, USA) or Envigo RMS, and were bred for use in scientific procedures. During pre-trial and on-study periods, the animals were group-housed in caging appropriate to the species. Prior to acceptance for use on study, animals were subject to a veterinary examination and the results found to be satisfactory. Holding and study areas had automatic control of light cycles and temperature. Light hours were 0700-1900 h. Ranges of temperature and humidity measured during the study were 17.0-21.8° C. and 23.4-83.07%, respectively. All animals were weighed prior to each dose administration and the bodyweights recorded. With the exception of a period of fasting from overnight predose until 4 hours post dose, a daily allowance of 200-300 g of standard laboratory diet of known formulation (SDS D3 (E) SQC) was available. Mains quality tap water was available ad libitum.
The formulation was always prepared on the morning of dose administration. Each polymorph was prepared as a suspension at a concentration of 12 mg/mL in a vehicle of 0.5% w/v HPMC K15M/0.5% w/v Tween 80 in sterile water for injection. The required volume of vehicle was added to an appropriate formulation container.
Each group of 3 male dogs, received a single oral dose administration of a polymorph at a target dose level of 60 mg/kg. Following a wash out period of 1 week each group of 3 male dogs received the alternative polymorph.
For each group, whole blood samples (ca 1.0 mL) were collected from the jugular veins in to NaF/EDTA tubes at the following time points:
Times given above were target times which were adhered to as closely as possible. Actual times of sample collection (and of dosing) were recorded (Table 2) and used in the evaluation of pharmacokinetic parameters. Immediately following collection, blood samples were placed on wet ice. As soon as practically possible the blood samples were centrifuged (+4° C., 1500 g, 10 min). The resulting plasma was divided into two aliquots (vial A: 100 μl plasma, vial B: remaining volume) and stored in appropriately labelled polypropylene tubes in a freezer set to maintain a temperature of −80° C. until shipment. All plasma samples, remaining dose formulation and dose aliquots were stored in a freezer set to maintain a temperature of −80° C. until shipment.
Pharmacokinetic (PK) parameters were estimated using Phoenix pharmacokinetic software using a non-compartmental approach consistent with the oral route of administration. All parameters were generated from polymorph 1 and 2 individual concentrations in plasma. Parameters were estimated using nominal sampling times relative to the start of each dose administration within an allowable deviation range (±10%). Predose samples below the limit of quantification (0.5 ng/mL) were assumed to be 0 for the PK analysis.
The area under the polymorph 1 and 2 plasma concentration versus time curve (AUC) was calculated using the linear trapezoidal method with linear interpolation. […]

LynB tyrosine kinase = LynB tyrosine kinase (Homo sapiens, UniProt P07948); test: Effect on LynB tyrosine kinase activity; type: biochemical
LynB tyrosine kinase, sequence (P07948 1-491 isoform P07948-2): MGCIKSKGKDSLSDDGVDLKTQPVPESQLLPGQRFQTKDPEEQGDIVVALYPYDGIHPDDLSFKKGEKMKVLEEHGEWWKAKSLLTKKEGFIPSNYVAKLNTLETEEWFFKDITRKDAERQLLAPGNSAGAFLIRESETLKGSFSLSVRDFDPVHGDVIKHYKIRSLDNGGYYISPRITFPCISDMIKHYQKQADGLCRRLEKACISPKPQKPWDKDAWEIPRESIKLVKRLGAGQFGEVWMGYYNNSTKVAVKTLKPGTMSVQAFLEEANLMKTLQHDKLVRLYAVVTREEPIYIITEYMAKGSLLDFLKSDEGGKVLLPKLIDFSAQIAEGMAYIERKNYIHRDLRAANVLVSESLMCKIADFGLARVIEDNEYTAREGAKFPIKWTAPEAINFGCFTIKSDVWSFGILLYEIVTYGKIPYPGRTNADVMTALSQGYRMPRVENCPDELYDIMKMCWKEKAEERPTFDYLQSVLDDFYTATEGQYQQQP

BLK tyrosine kinase = BLK tyrosine kinase (Homo sapiens, UniProt P51451); test: Effect on BLK tyrosine kinase activity; type: biochemical
BLK tyrosine kinase, sequence (P51451 whole entry): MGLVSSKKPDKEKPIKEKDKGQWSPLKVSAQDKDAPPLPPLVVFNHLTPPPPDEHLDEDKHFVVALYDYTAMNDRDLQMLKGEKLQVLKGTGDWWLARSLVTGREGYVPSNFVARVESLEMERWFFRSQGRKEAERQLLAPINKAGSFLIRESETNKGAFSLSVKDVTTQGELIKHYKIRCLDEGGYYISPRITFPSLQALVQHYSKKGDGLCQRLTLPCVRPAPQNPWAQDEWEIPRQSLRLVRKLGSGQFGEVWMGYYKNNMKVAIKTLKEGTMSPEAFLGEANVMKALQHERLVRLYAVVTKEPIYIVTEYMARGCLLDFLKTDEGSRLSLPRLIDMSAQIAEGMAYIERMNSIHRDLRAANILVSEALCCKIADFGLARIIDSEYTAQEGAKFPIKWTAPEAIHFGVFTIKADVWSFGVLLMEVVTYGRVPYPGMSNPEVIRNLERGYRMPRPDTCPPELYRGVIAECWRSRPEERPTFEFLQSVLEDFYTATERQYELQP

[2] = Gravimetric Vapour Sorption (GVS); type: physicochemical; settings: for change of polymorphic form on GVS cycling: hysteresis between cycles / XRPD after the cycles; for weight gain to 80% RH (GVS): first adsorption cycle
Procedure: Gravimetric Vapour Sorption (GVS)
Approximately 10 mg of sample was placed into a wire-mesh vapour sorption balance pan and loaded into an ‘IgaSorp’ vapour sorption balance (Hiden Analytical Instruments). The sample was then dried by maintaining a 0% humidity environment until no further weight change was recorded. Subsequently, the sample was subjected to a ramping profile from 0-90% RH at 10% RH increments, maintaining the sample at each step until equilibration had been attained (99% step completion). Upon reaching equilibration, the % RH within the apparatus was ramped to the next step and the equilibration procedure repeated. After completion of the sorption cycle, the sample was then dried using the same procedure. The weight change during the sorption/desorption cycles were then monitored, allowing for the hygroscopic nature of the sample to be determined.

[3] = male Beagle dog plasma, oral suspension, target 60 mg/kg

LynA tyrosine kinase, sequence (P07948 whole entry): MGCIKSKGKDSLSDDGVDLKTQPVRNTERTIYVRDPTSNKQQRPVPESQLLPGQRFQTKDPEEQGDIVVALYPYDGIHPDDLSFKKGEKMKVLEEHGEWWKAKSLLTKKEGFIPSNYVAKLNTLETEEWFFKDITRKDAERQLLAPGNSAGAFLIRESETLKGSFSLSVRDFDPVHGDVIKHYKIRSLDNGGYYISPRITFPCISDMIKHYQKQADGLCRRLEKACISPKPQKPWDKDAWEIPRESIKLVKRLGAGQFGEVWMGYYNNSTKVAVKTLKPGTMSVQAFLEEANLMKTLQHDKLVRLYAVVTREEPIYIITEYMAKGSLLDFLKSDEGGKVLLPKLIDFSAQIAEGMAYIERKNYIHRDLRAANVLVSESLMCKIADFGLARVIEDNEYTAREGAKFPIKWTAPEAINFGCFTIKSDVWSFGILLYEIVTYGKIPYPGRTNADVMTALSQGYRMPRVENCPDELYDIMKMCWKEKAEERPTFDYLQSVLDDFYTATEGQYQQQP

effect on activity of LynA tyrosine kinase (LynA tyrosine kinase): capable of activating
extrapolated part of AUC(0-∞) ([1]; male Beagle dog, oral 60 mg/kg): no more than 6%
half-life ([1]; plasma, male Beagle dog, oral 60 mg/kg, terminal decline, read-out: estimated mean half-life): 3 to 4 h
effect on activity of LynB tyrosine kinase (LynB tyrosine kinase): no or substantially no effect
effect on activity of BLK tyrosine kinase (BLK tyrosine kinase): capable of activating
SMILES: C[C@H](O)COC[C@H](Cc1ccc(O)cc1)NC(=O)CCc1ccccc1 [NRD135S.E1, (S,S)-2-N(3-O-(propan-2-ol)-1-propyl-4-hydroxybenzene)-3-phenylpropylamide]

hygroscopicity (GVS, in words) [2]: hygroscopic
change of polymorphic form on GVS cycling [2]: hinted towards form change
weight increase in second adsorption cycle (GVS) ([2]; second adsorption cycle, RH of 40%): > 2%
weight increase to 70% RH (GVS) ([2]; to 70% RH): ~1.3%
weight gain to 80% RH (GVS) [2]: 5.6%
LS geometric mean Cmax [1, 3]: 4986 ng/mL
AUC(0-inf) ([1]; male, Beagle, dog, plasma, po, 60 mg/kg, male Beagle dog plasma, oral suspension, target 60 mg/kg, corrected to a 60.0 mg dose, read-out: LS geometric mean AUC(0-∞)): 13200 ng·h/mL
SMILES: C[C@H](O)COC[C@H](Cc1ccc(O)cc1)NC(=O)CCc1ccccc1 [polymorph 1, (S,S)-2-N(3-O-(propan-2-ol)-1-propyl-4-hydroxybenzene)-3-phenylpropylamide]
adverse reactions to the oral administration ([1]; male Beagle dog): No adverse reactions

hygroscopicity (GVS, in words) [2]: only slightly hygroscopic
overall weight loss by the end of the two adsorption/desorption cycles (GVS) ([2]; after two adsorption/desorption cycles): ~1%
change of polymorphic form on GVS cycling ([2]; listed as Form 2): no change of polymorphic form
hygroscopicity (GVS, in words) ([2]; listed as Form 2): only slightly hygroscopic
weight gain to 80% RH (GVS) [2]: 0.6%
weight gain to 80% RH (GVS) ([2]; listed as Form 2): 0.6%
bioavailability (in words) ([1]; dog bioavailability tests): exceptionally high
LS geometric mean AUC(0-∞) ([1]; male Beagle dog plasma, oral suspension, target 60 mg/kg, corrected to a 60.0 mg dose): 20064 ng·h/mL
LS geometric mean Cmax [1, 3]: 11088 ng/mL
geometric mean ratio (polymorph 2/polymorph 1) of AUC(0-∞) ([1]; male Beagle dog, oral, dose-corrected, 90% CI 1.35, 1.71): 1.52
geometric mean ratio (polymorph 2/polymorph 1) of Cmax ([1]; male Beagle dog, oral, dose-corrected, 90% CI 1.84, 2.70): 2.22
SMILES: C[C@H](O)COC[C@H](Cc1ccc(O)cc1)NC(=O)CCc1ccccc1 [polymorph 2, (S,S)-2-N(3-O-(propan-2-ol)-1-propyl-4-hydroxybenzene)-3-phenylpropylamide]
adverse reactions to the oral administration ([1]; male Beagle dog): No adverse reactions
